Data published in patent US20100029654A1, “CARDIOVASCULAR COMPOSITIONS AND USE OF THE SAME FOR THE TREATMENT OF ALZHEIMER'S DISEASE” (MOUNT SINAI SCHOOL OF MEDICINE, priority 2006, published 2010).
Counter-ions that a name gives are not always drawn. Like-named read-outs stand apart in the source and are kept apart here.

Columns and labels:
[1] = tested on: Aβ1-40; assay: Aβ1-40 content in conditioned medium of primary cortico-hippocampal neuron cultures from Tg2576 mice (ELISA; primary and secondary dose-response screening); type: cell-based, mouse; conditions: for activity at 100 µM: Mus musculus, Neuron, 24 h, read-out: Ab1-40 (% of ctl); for activity at 100 µM / Ab1-40 (% of ctl): drug 100 μM; for reduced Aβ1-40: <85% of ctl
In short: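 Primary cortico-hippocampal neurons from embryonic Tg2576 mice were plated at 1.0×10^5 cells per well on poly-D-lysine-coated 96-well plates in Neurobasal with 2% B27, 0.5 mM L-glutamine and 1% penicillin-streptomycin. Cultures received drug in 1% DMSO, and Aβ1-40 in the conditioned medium was measured by BioSource ELISA 24 hours after treatment, relative to vehicle controls.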

[2] = tested on: Aβ1-42; assay: Aβ1-42 content in conditioned medium of primary cortico-hippocampal neuron cultures from Tg2576 mice (ELISA; primary and secondary dose-response screening); type: cell-based, mouse; conditions: for activity at 100 µM: Mus musculus, Neuron, 24 h, read-out: Ab1-42 (% of ctl); for activity at 100 µM / Ab1-42 (% of ctl): drug 100 μM; for reducing Aβ1-42: <85% of ctl
In short: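 Primary cortico-hippocampal neurons from embryonic Tg2576 mouse brain were seeded on poly-D-lysine-coated 96-well plates at 1.0×10^5 cells per well in serum-free Neurobasal medium with 2% B27, 0.5 mM L-glutamine and 1% penicillin-streptomycin. For primary screening, duplicate wells received 100 μM drug (1% DMSO final). Vehicle-treated cultures served as controls, and Aβ1-42 in conditioned medium was measured by commercial ELISA.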

[3] = tested on: primary cortico-hippocampal neuron cultures; assay: MTT in primary screening
[4] = tested on: primary cortico-hippocampal neuron cultures; assay: lactate dehydrogenase (LDH) activity assay in parallel neuron cultures
Experimental: For in vitro treatments drugs available from “The Spectrum Collection” in stocks of 10 mM in DMSO were applied directly to cultures to the desired concentrations (final 1% DMSO); control primary neuron cultures from Tg2576 embryos were treated with vehicle resulting in a final 1% DMSO.
Cell viability was assessed using a commercial available LDH assay kit according to the manufacture's instruction (Promega).

[5] = Primary Screening, table sorted by Aβ1-40
[6] = primary screening, Tg2576 neuron cultures, table sorted by Aβ1-42
[7] = primary screening, table sorted by Aβ1-42

| MTT (% of ctl) [3, 5] | MTT (% of ctl) [3, 7] | LDH (% of ctl) [4, 5] | LDH (% of ctl) [4, 7] | SMILES | activity at 100 µM [1, 5] [%] | activity at 100 µM [1, 6] [%] | activity at 100 µM [2, 5] [%] | activity at 100 µM [2, 6] [%] | Ab1-40 (% of ctl) [1, 5] | reduced Aβ1-40 ([1]; primary screening) | Ab1-40 (% of ctl) [1, 6] | Ab1-42 (% of ctl) [2, 5] | reducing Aβ1-42 ([2]; primary screening) | Ab1-42 (% of ctl) [2, 6] |
| --- | --- | --- | --- | --- | --- | --- | --- | --- | --- | --- | --- | --- | --- | --- |
| 61.0 % of ctl | 61.0 % of ctl | 134.5 % of ctl | 134.5 % of ctl | O=C(O)c1cccnc1 [Niacin] | 101 | 101 | 95 | 95 | – | – | – | – | – | – |
| 102.1 % of ctl | 102.1 % of ctl | 281.1 % of ctl | 281.1 % of ctl | NS(=O)(=O)c1cc2c(cc1Cl)NCNS2(=O)=O [Hydrochlorothiazide] | 89.5 | 89.5 | 116 | 116 | – | – | – | – | – | – |
| 96.1 % of ctl | 96.1 % of ctl | 117.3 % of ctl | 117.3 % of ctl | NC(N)=NC(=O)c1nc(Cl)c(N2CCCCCC2)nc1N [N,N-Hexamethyleneamiloride] | – | – | – | – | 15.4 % of ctl | reduced Aβ1-40 | 15.4 % of ctl | 26.2 % of ctl | useful in reducing Aβ1-42 | 26.2 % of ctl |
| 46.8 % of ctl | 46.8 % of ctl | 357.6 % of ctl | 357.6 % of ctl | C=C[C@H]1C[N@@]2CC[C@H]1C[C@@H]2[C@@H](O)c1ccnc2ccc(OC)cc12 [Quinidine Gluconate] | 63.3 | 63.3 | 70 | 70 | – | reduced Aβ1-40 | – | – | useful in reducing Aβ1-42 | – |
| 101.3 % of ctl | 101.3 % of ctl | 108.9 % of ctl | 108.9 % of ctl | CC(=O)Nc1ccc(OCC(O)CNC(C)C)cc1 (stereo not drawn) [Practolol] | 99.7 | 99.7 | 99.9 | 99.9 | – | – | – | – | – | – |
| 95.6 % of ctl | 95.6 % of ctl | 103.4 % of ctl | 103.4 % of ctl | Cc1cccc(C)c1OCC(C)N (stereo not drawn) [Mexiletine Hydrochloride] | 91.3 | 91.3 | 115 | 115 | – | – | – | – | – | – |
| 97.2 % of ctl | 97.2 % of ctl | 357.1 % of ctl | 357.1 % of ctl | CCCC(=O)Nc1ncnc2c1ncn2[C@@H]1O[C@@H]2COP(=O)(O)O[C@H]2[C@H]1OC(=O)CCC [Bucladesine] | 85.3 | 85.3 | 69.9 | 69.9 | – | – | – | – | useful in reducing Aβ1-42 | – |
| 98.5 % of ctl | 98.5 % of ctl | 96.4 % of ctl | 96.4 % of ctl | CC[C@]12CCCN3CCc4c(n(c5ccccc45)[C@@](O)(C(=O)OC)C1)[C@@H]32 [Vincamine] | 99.1 | 99.1 | 104 | 104 | – | – | – | – | – | – |
| 126.4 % of ctl | 126.4 % of ctl | 118.9 % of ctl | 118.9 % of ctl | CCOC(=O)[C@H](CCc1ccccc1)N[C@@H](C)C(=O)N1CCC[C@H]1C(=O)O [Enalapril Maleate] | 101 | 101 | 97.6 | 97.6 | – | – | – | – | – | – |
| 103.6 % of ctl | 103.6 % of ctl | 102.2 % of ctl | 102.2 % of ctl | CC[C@H]1CN2CC[C@H]1C[C@@H]2[C@@H](O)c1ccnc2ccc(OC)cc12 [Hydroquinidine] | 96.5 | 96.5 | 121 | 121 | – | – | – | – | – | – |
| 98.5 % of ctl | 98.5 % of ctl | 117.1 % of ctl | 117.1 % of ctl | Nc1cc(N2CCCCC2)nc(N)[n+]1[O-] [Minoxidil] | 94.2 | 94.2 | 98.9 | 98.9 | – | – | – | – | – | – |
| 93.8 % of ctl | 93.8 % of ctl | 103.3 % of ctl | 103.3 % of ctl | Nc1nc(N)c2nc(-c3ccccc3)c(N)nc2n1 [Triamterene] | 85.1 | 85.1 | 64.2 | 64.2 | – | – | – | – | useful in reducing Aβ1-42 | – |
| 77.1 % of ctl | 77.1 % of ctl | 1885.2 % of ctl | 1885.2 % of ctl | CC(C)COCC(CN(Cc1ccccc1)c1ccccc1)N1CCCC1 (stereo not drawn) [Bepridil Hydrochloride] | 5.1 | 5.1 | 19.9 | 19.9 | – | reduced Aβ1-40 | – | – | useful in reducing Aβ1-42 | – |

Second part, the compound before the results:

| SMILES | MTT (% of ctl) [3, 5] | MTT (% of ctl) [3, 7] | LDH (% of ctl) [4, 5] | LDH (% of ctl) [4, 7] | activity at 100 µM [1, 5] [%] | activity at 100 µM [1, 6] [%] | activity at 100 µM [2, 5] [%] | activity at 100 µM [2, 6] [%] | Ab1-40 (% of ctl) [1, 5] | reduced Aβ1-40 ([1]; primary screening) | Ab1-40 (% of ctl) [1, 6] | Ab1-42 (% of ctl) [2, 5] | reducing Aβ1-42 ([2]; primary screening) | Ab1-42 (% of ctl) [2, 6] |
| --- | --- | --- | --- | --- | --- | --- | --- | --- | --- | --- | --- | --- | --- | --- |
| CC(C)NCC(O)COc1ccc(CC(N)=O)cc1 (stereo not drawn) [Atenolol] | 97.3 % of ctl | 97.3 % of ctl | 136.8 % of ctl | 136.8 % of ctl | 90.4 | 90.4 | 94.5 | 94.5 | – | – | – | – | – | – |
| NS(=O)(=O)c1cc2c(cc1C(F)(F)F)NCNS2(=O)=O [Hydroflumethiazide] | 98.9 % of ctl | 98.9 % of ctl | 99.7 % of ctl | 99.7 % of ctl | 92.4 | 92.4 | 90.2 | 90.2 | – | – | – | – | – | – |
| Cc1ccccc1N1C(=O)c2cc(S(N)(=O)=O)c(Cl)cc2NC1C (stereo not drawn) [Metolazone] | 69.7 % of ctl | 69.7 % of ctl | 103.7 % of ctl | 103.7 % of ctl | 104 | 104 | 98 | 98 | – | – | – | – | – | – |
| NS(=O)(=O)c1cc2c(cc1Cl)NC(C(Cl)Cl)NS2(=O)=O (stereo not drawn) [Trichlormethiazide] | 105.5 % of ctl | 105.5 % of ctl | 102.6 % of ctl | 102.6 % of ctl | 89.3 | 89.3 | 84.5 | 84.5 | – | – | – | – | useful in reducing Aβ1-42 | – |
| CC(N)CCCC(C)(C)O (stereo not drawn) [Heptaminol Hydrochloride] | 103.4 % of ctl | 103.4 % of ctl | 103.4 % of ctl | 103.4 % of ctl | 112 | 112 | 105 | 105 | – | – | – | – | – | – |
| O=C(O)C(O)C(O)C(=O)O.OCc1cccnc1 (stereo not drawn) [Nicotinyl Tartrate] | 92.7 % of ctl | 92.7 % of ctl | 122.6 % of ctl | 122.6 % of ctl | – | – | – | – | 80.0 % of ctl | reduced Aβ1-40 | 80.0 % of ctl | 73.8 % of ctl | useful in reducing Aβ1-42 | 73.8 % of ctl |
| CCCCC1=NC2(CCCC2)C(=O)N1Cc1ccc(-c2ccccc2-c2nnn[nH]2)cc1 [Irbesartan] | 98.9 % of ctl | 98.9 % of ctl | 112.5 % of ctl | 112.5 % of ctl | 89.7 | 89.7 | 82.3 | 82.3 | – | – | – | – | useful in reducing Aβ1-42 | – |
| COc1ccc(OC)c(C(O)CNC(=O)CN)c1 (stereo not drawn) [Midodrine Hydrochloride] | 87.8 % of ctl | 87.8 % of ctl | 105.6 % of ctl | 105.6 % of ctl | 86 | 86 | 76.7 | 76.7 | – | – | – | – | useful in reducing Aβ1-42 | – |
| CC(=O)CCCCn1c(=O)c2c(ncn2C)n(C)c1=O [Pentoxifylline] | 91.1 % of ctl | 91.1 % of ctl | 132.4 % of ctl | 132.4 % of ctl | 97.1 | 97.1 | 109 | 109 | – | – | – | – | – | – |
